Columns and labels:
CDK9 [1] = target: T1, CDK9 (Homo sapiens, UniProt P50750); assay: CDK9 degradation by HiBit assay, NCIH1048 cells; format: cell-based; settings: NCIH1048 cells with endogenously tagged N-terminal CDK9-HiBit, 24 hours incubation; read-out: HiBit-NCIH1048.3 DC50
T1 construct: NCIH211 cells with endogenously tagged N-terminal CDK9-HiBit; endogenous in cells; host or cells: NCIH211 cells (endogenous CDK9 locus tagged with HiBit)
Procedure: (§1) Exemplary compounds of the invention were tested for degradation of CDK9. The compounds were tested in 10-dose DC50 duplicate mode with a 3-fold serial dilution starting at 10 μM by HiBit assay (Promega, Inc) as a direct measurement of CDK9 presence, with incubation time of 24 hours using either NCIH211 cells with endogenously tagged N-terminal CDK9-HiBit or NCIH1048 cells with endogenously tagged N-terminal CDK9-HiBit. A control compound (THAL-SNS-032, CAS 2139287-33-3) was tested in 10-dose DC50 mode with 3-fold serial dilution starting at 10 μM. Data was normalized to positive (medium only) and negative (cells with no treatment) controls and curve fits were analyzed with CDK9 as % response vs. log [compound concentration] using a 4-parameter logistic model by GraphPad software. For Table 2: A is <100, B is <1000 C is <10,000, D is >10,000 and ND is Not Determined.

CDK9 [2] = target: T1, CDK9; assay: CDK9 degradation by HiBit assay, NCIH211 cells; format: cell-based; settings: NCIH211 cells with endogenously tagged N-terminal CDK9-HiBit, 24 hours incubation; read-out: HiBit-NCIH211.2 DC50
Procedure: as §1

T1 sequence (P50750 whole entry): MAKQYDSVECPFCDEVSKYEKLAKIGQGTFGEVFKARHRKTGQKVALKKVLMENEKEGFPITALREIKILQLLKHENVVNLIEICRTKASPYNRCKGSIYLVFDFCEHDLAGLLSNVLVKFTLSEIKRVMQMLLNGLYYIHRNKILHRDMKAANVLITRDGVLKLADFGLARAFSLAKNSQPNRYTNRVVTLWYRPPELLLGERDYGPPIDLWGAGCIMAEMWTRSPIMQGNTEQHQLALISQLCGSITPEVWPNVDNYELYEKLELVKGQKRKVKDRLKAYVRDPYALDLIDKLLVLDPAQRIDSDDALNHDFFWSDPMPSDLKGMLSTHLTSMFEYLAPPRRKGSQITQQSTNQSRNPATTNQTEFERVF
T1 sequence (O60563 whole entry partner): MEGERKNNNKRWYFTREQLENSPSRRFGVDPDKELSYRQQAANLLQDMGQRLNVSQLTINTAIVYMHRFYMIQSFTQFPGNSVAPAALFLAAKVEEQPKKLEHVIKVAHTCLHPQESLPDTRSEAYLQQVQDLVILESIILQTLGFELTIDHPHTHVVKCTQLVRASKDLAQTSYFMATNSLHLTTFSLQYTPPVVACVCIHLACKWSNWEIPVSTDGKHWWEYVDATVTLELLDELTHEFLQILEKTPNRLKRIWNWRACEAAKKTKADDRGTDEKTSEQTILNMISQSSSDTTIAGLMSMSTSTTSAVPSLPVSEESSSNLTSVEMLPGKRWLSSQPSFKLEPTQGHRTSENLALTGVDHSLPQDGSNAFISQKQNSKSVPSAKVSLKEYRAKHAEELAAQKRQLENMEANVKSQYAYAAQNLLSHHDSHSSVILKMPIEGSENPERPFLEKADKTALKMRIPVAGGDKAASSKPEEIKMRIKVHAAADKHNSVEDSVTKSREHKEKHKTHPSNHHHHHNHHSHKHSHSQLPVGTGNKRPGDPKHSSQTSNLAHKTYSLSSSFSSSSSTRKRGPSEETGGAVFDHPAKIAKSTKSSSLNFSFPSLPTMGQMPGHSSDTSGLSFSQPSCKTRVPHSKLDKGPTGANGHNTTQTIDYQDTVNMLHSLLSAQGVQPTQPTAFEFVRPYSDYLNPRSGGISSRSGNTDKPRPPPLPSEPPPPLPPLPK

DC50 (CDK9 [1]) [nM] | DC50 (CDK9 [2]) [nM] | Compound
< 100 | < 100 | C/C=C(\CC)c1cc(N[C@H]2CC[C@H](NCC(=O)N3CCN(CCCCNc4cccc5c4C(=O)N(C4CCC(=O)NC4=O)C5=O)CC3)C2)n2nccc2n1 (some centres unmarked) [Compound 56.0]
< 100 | < 100 | C/C=C(\CC)c1cc(N[C@H]2CC[C@H](NCC(=O)N3CCN(CCNc4cccc5c4C(=O)N(C4CCC(=O)NC4=O)C5=O)CC3)C2)n2ncc(Cl)c2n1 (stereo partly drawn) [Compound 58.0, 4-[2-[4-[2-[[(1S,3S)-3-[[3-chloro-5-[(E)-1-ethylprop-1-enyl]pyrazolo[1,5-a]pyrimidin-7-yl]amino]cyclopentyl]amino]acetyl]piperazin-1-yl]ethylamino]-2-(2,6-dioxo-3-piperidyl)isoindoline-1,3-dione]
< 10000 | < 10000 | CCC(CC)c1cc(N[C@H]2CC[C@H](NCC(=O)NCCCc3cn(CCOCCOCCOc4cc(-c5scnc5C)ccc4CNC(=O)[C@@H]4C[C@@H](O)CN4C(=O)[C@H](C(C)C)N4Cc5ccccc5C4=O)nn3)C2)n2ncc(Cl)c2n1 [Compound 51.0]
< 100 | < 100 | C/C=C(\CC)c1cc(N[C@H]2CC[C@H](NCC(=O)N3CCN(CCCNc4cccc5c4C(=O)N(C4CCC(=O)NC4=O)C5=O)CC3)C2)n2nccc2n1 (stereo partly drawn) [Compound 21.0, 2-(2,6-dioxo-3-piperidyl)-4-[3-[4-[2-[[(1S,3S)-3-[[5-[(E)-1-ethylprop-1-enyl]pyrazolo[1,5-a]pyrimidin-7-yl]amino]cyclopentyl]amino]acetyl]piperazin-1-yl]propylamino]isoindoline-1,3-dione]
< 100 | < 100 | CCC(CC)c1cc(N[C@H]2CC[C@H](NCC(=O)N3CCN(CCCNc4cccc5c4C(=O)N(C4CCC(=O)NC4=O)C5=O)CC3)C2)n2ncc(Cl)c2n1 (some centres unmarked) [Compound 50.0]
< 1000 | < 10000 | CCC(CC)c1cc(N[C@H]2CC[C@H](NCC(=O)NCCOCCOCCOCCNc3cccc4c3C(=O)N(C3CCC(=O)NC3=O)C4=O)C2)n2nccc2n1 (stereo partly drawn) [Compound 5.0, N-[2-[2-[2-[2-[[2-(2,6-dioxo-3-piperidyl)-1,3-dioxo-isoindolin-4-yl]amino]ethoxy]ethoxy]ethoxy]ethyl]-2-[[(1S,3S)-3-[[5-(1-ethylpropyl)pyrazolo[1,5-a]pyrimidin-7-yl]amino]cyclopentyl]amino]acetamide]

Continued, compound first:

Compound | DC50 (CDK9 [1]) [nM] | DC50 (CDK9 [2]) [nM]
CCC(CC)c1cc(N[C@H]2CC[C@H](NCC(=O)NCCCc3cn(CCOCCOCCOCCOCCOc4cc(-c5scnc5C)ccc4CNC(=O)[C@@H]4C[C@@H](O)CN4C(=O)[C@H](C(C)C)N4Cc5ccccc5C4=O)nn3)C2)n2ncc(Cl)c2n1 [Compound 54.0] | < 10000 | < 10000
CCC(CC)c1cc(N[C@H]2CC[C@H](NCC(=O)NCCCc3cn(CCOCCOc4cc(-c5scnc5C)ccc4CNC(=O)[C@@H]4C[C@@H](O)CN4C(=O)[C@H](C(C)C)N4Cc5ccccc5C4=O)nn3)C2)n2ncc(Cl)c2n1 [Compound 52.0] | < 10000 | > 10000
CCC(CC)c1cc(N[C@H]2CC[C@H](NCC(=O)N3CCN(CCCNc4cccc5c4C(=O)N(C4CCC(=O)NC4=O)C5=O)CC3)C2)n2nccc2n1 (some centres unmarked) [Compound 48.0] | < 100 | < 1000
C/C=C(\CC)c1cc(N[C@H]2CC[C@H](NCC(=O)N3CCN(CCCNc4cccc5c4C(=O)N(C4CCC(=O)NC4=O)C5=O)CC3)C2)n2ncc(Cl)c2n1 (stereo partly drawn) [Compound 57.0, 4-[3-[4-[2-[[(1S,3S)-3-[[3-chloro-5-[(E)-1-ethylprop-1-enyl]pyrazolo[1,5-a]pyrimidin-7-yl]amino]cyclopentyl]amino]acetyl]piperazin-1-yl]propylamino]-2-(2,6-dioxo-3-piperidyl)isoindoline-1,3-dione] | < 100 | < 100

From US20250188084A1, “COMPOUNDS AND METHODS FOR MODULATING CDK9 ACTIVITY” (KRONOS BIO, INC., priority 2020, published 2025)
